Like-named read-outs stand apart in the source and are kept apart here.
Columns and labels:
[1] = system: endopeptidase activity in cotton sprouts; conditions: for absorbance reading, Mean, Cotton Sprouts Treated with PBO / absorbance reading, replicate 1, Cotton Sprouts Treated with PBO / absorbance reading, replicate 2, Cotton Sprouts Treated with PBO / absorbance reading, replicate 3, Cotton Sprouts Treated with PBO / Endopeptidase Activity (U × 10^3), Cotton Sprouts Treated with PBO: pH 7.7; for absorbance reading, Mean, Cotton Sprouts Treated with PBO / absorbance reading, replicate 1, Cotton Sprouts Treated with PBO / absorbance reading, replicate 2, Cotton Sprouts Treated with PBO / absorbance reading, replicate 3, Cotton Sprouts Treated with PBO / % difference of endopeptidase activity, treated vs untreated / Endopeptidase Activity (U × 10^3), Cotton Sprouts Treated with PBO: 4 days of germination, PBO 1% w/v; for Δ U (endopeptidase activity, untreated vs PBO treated): same scale as Activity (U × 10^3)
Description: The extent of hydrolytic activity in cotton sprouts was measured at 15′, 30′, 60′, 90′ and 120′ after solubilization of the acetonic powder in aqueous buffer at pH 7.7 by determining the absorbance at 280 nm in a quartz cuvette after protein precipitation with TCA and removal by centrifugation. Each series of analysis was performed in […]. The comparison between the values of […] activity in treated (dark grey) and untreated (light grey) samples was done using the average value of each series of analysis. Abscissa: time (min); ordinate: Abs 280 nm.
The basic idea was to “freeze” the physiologic protein hydrolysis enzymatic activity and to re-establish the process simply solubilizing the proteolytic enzymatic system in suitable buffers, which were 0.1 M phosphate pH 6.5 and 0.1 M tris-HCl pH 7.7, for evaluating both the carboxypeptidase and the endopeptidase activities according to the method described by Hile et al. 1972; Funkhouser et al. 1980.
Cotton seeds (cv. Carmela) were obtained from “Semillas Battle”, Barcelona (E).
The seeds were previously rinsed in tap water and then imbibed with aeration in distilled water over night (Funkhouser, E. A. et al., Z. Pflanzenphysiol., 1980, 100, 319-324).
The plastic boxes containing seeds were covered by a plastic film and placed in a germinator in the dark for 4 days at 30° C. as described in Hile, J. N. and Dure, L. S. J. Biol. Chem., 1972, 247: 5034-5040.
The cotton sprouts of 4 days were collected and frozen in liquid nitrogen and freeze dried (Hile et al. 1972). After this process, the material was crushed in a pestle and freed from fibrous material and settled up to obtain a pretty homogeneous meal of about 0.5 mesh.
The meals were defatted using n-hexane (1:10 w/v) at room temperature and then treated with acetone at −20° C. to remove pigments and polyphenolic compounds, in this case mainly gossypol. The powders obtained were stored in a dry box at room temperature.
The acetonic powder (30 mg) was suspended in buffer (4 ml) and incubated at 37° C. for 15′, 30, 60, 90, 120 minutes. The proteolysis was stopped adding 1 ml of 12% trichloroacetic acid. In this case the buffer used was 0.1 M phosphate pH 7.7 (Funkhouser et al. 1980). The control was a suspension of the same sample prepared in the same way but was immediately deactivated, adding up 1 ml of trichloroacetic acid. The trials with treated and untreated samples were carried out at the same time.
Proteins were precipitated with trichloroacetic acid and then removed by filtration, before with Whatman paper n. 4 and then by micro-filtration (Orange Scientific Braine I'Alleud, Belgium (Ø0.2 μm)). Finally, the hydrolyzed protein samples were analyzed as clear solutions by determining the absorbance at 280 nm in a quartz cuvette.
Each series of analysis was performed threefold. The comparison between the values of endopeptidase activity of treated and untreated samples was done using the average value of each series of analysis.

[2] = system: ficin; conditions: Wo 25, HEPES pH 7.1, 30° C.
Description: Reverse micelles assay of ISO-AOT 50 mM (AOT: twin aerosol (2-ethylhexylsodiumsulfosuccinate in isooctane (ISO)); Wo (H2O/AOT)=25
The assays were carried out in the reverse-micelles assay dispersed in organic solvent, described by Walde et al. in Eur. J. Biochem., 1988, 173:401-409, and already reported in the literature in kinetic studies of the inhibition of trypsin with natural and synthetic inhibitors. […]
The enzyme assay on reverse-micelle has been already described in the literature for the enzyme trypsin and was adapted to different enzymes. […] To this solution was added an appropriate volume of substrate CBZ (dissolved in acetonitrile/H2O, 80:20 (v/v) at a concentration of 15 mM) and following further agitation (the solution returned to being transparent), the change in absorbance was measured (Dabs) at 340 nm with a Cary 219 spectrophotometer.
The experimental data obtained are represented graphically in the form of Dixon-plot (described for example in: “Quantitative Problems in Biochemistry”, E A. Dawes, 5th ed. 1972 Baltimore, The Williams and Wilkins Company), in the FIGS. 1, 2 and 3.

[3] = target: bromelain (Ananas comosus, UniProt P14518); conditions: for initial velocity, Mean / initial velocity, test 1 / initial velocity, test 2 / Mean (% contr.): 1% PBO; for Mean (% contr.): % of control
Sequence of bromelain (P14518 whole entry): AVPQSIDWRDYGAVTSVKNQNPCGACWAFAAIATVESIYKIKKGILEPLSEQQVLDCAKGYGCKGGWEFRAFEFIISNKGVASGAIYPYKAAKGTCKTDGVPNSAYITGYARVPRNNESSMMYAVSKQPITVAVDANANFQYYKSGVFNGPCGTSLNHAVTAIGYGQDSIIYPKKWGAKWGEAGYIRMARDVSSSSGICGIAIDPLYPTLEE
Description: The assay was carried out as described in Heinrikson & Kezdy, 1976, Methods in Enzymol. 45, p. 740. The conditions are summarised briefly herein: 50 μg of bromelain was mixed with variable quantities of Na CBZ-L-lysine p-nitrophenyl ester substrate in 3 ml of 10 mM acetate buffer pH 4.6 containing KCl (0.1 M) and L-cystein (1 mM).

[4] = Time 0 (immediately deactivated)
[5] = PBO 0.334 % (w/w), substrate 240 μM
[6] = PBO 0.5 % (w/w), substrate 240 μM
[7] = PBO 0.667 % (w/w), substrate 240 μM
[8] = PBO 1 % (w/w), substrate 240 μM
[9] = PBO 1.334 % (w/w), substrate 240 μM
[10] = PBO 1.667 % (w/w), substrate 240 μM

SMILES: CCCCOCCOCCOCc1cc2c(cc1CCC)OCO2 [PBO, 5-[[2-(2-Butoxyethoxy)ethoxy]methyl]-6-propyl-1,3-benzodioxole]
- endopeptidase activity in PBO treated cotton sprouts ([1]; FIG. 5, treated vs untreated cotton sprouts): lower than in the untreated ones
- absorbance reading, Mean, Cotton Sprouts Treated with PBO [1, 4]: 868.00
- absorbance reading, replicate 1, Cotton Sprouts Treated with PBO [1, 4]: 821.00
- absorbance reading, replicate 2, Cotton Sprouts Treated with PBO [1, 4]: 897.00
- absorbance reading, replicate 3, Cotton Sprouts Treated with PBO [1, 4]: 886.00
- % difference of endopeptidase activity, treated vs untreated ([1]; Time 15′): 47.86%
- Endopeptidase Activity (U × 10^3), Cotton Sprouts Treated with PBO ([1]; Time 15′): 50.67 U × 10^3
- absorbance reading, Mean, Cotton Sprouts Treated with PBO ([1]; Time 15′): 918.67
- absorbance reading, replicate 1, Cotton Sprouts Treated with PBO ([1]; Time 15′): 965.00
- absorbance reading, replicate 2, Cotton Sprouts Treated with PBO ([1]; Time 15′): 876.00
- absorbance reading, replicate 3, Cotton Sprouts Treated with PBO ([1]; Time 15′): 915.00
- Δ U (endopeptidase activity, untreated vs PBO treated) ([1]; Time 15′): 46.50 U
- % difference of endopeptidase activity, treated vs untreated ([1]; Time 30′): 29.00%
- Endopeptidase Activity (U × 10^3), Cotton Sprouts Treated with PBO ([1]; Time 30′): 82.00 U × 10^3
- absorbance reading, Mean, Cotton Sprouts Treated with PBO ([1]; Time 30′): 950.00
- absorbance reading, replicate 1, Cotton Sprouts Treated with PBO ([1]; Time 30′): 965.00
- absorbance reading, replicate 2, Cotton Sprouts Treated with PBO ([1]; Time 30′): 935.00
- absorbance reading, replicate 3, Cotton Sprouts Treated with PBO ([1]; Time 30′): 950.00
- Δ U (endopeptidase activity, untreated vs PBO treated) ([1]; Time 30′): 33.50 U
- % difference of endopeptidase activity, treated vs untreated ([1]; Time 60′): 12.86%
- Endopeptidase Activity (U × 10^3), Cotton Sprouts Treated with PBO ([1]; Time 60′): 148.00 U × 10^3
- absorbance reading, Mean, Cotton Sprouts Treated with PBO ([1]; Time 60′): 1016.00
- absorbance reading, replicate 1, Cotton Sprouts Treated with PBO ([1]; Time 60′): 1038.00
- absorbance reading, replicate 2, Cotton Sprouts Treated with PBO ([1]; Time 60′): 1038.00
- absorbance reading, replicate 3, Cotton Sprouts Treated with PBO ([1]; Time 60′): 972.00
- Δ U (endopeptidase activity, untreated vs PBO treated) ([1]; Time 60′): 21.83 U
- % difference of endopeptidase activity, treated vs untreated ([1]; Time 90′): 28.80%
- Endopeptidase Activity (U × 10^3), Cotton Sprouts Treated with PBO ([1]; Time 90′): 127.33 U × 10^3
- absorbance reading, Mean, Cotton Sprouts Treated with PBO ([1]; Time 90′): 995.33
- absorbance reading, replicate 1, Cotton Sprouts Treated with PBO ([1]; Time 90′): 1015.00
- absorbance reading, replicate 2, Cotton Sprouts Treated with PBO ([1]; Time 90′): 991.00
- absorbance reading, replicate 3, Cotton Sprouts Treated with PBO ([1]; Time 90′): 980.00
- Δ U (endopeptidase activity, untreated vs PBO treated) ([1]; Time 90′): 51.50 U
- % difference of endopeptidase activity, treated vs untreated ([1]; Time 120′): 22.48%
- Endopeptidase Activity (U × 10^3), Cotton Sprouts Treated with PBO ([1]; Time 120′): 129.33 U × 10^3
- absorbance reading, Mean, Cotton Sprouts Treated with PBO ([1]; Time 120′): 997.33
- absorbance reading, replicate 1, Cotton Sprouts Treated with PBO ([1]; Time 120′): 1017.00
- absorbance reading, replicate 2, Cotton Sprouts Treated with PBO ([1]; Time 120′): 960.00
- absorbance reading, replicate 3, Cotton Sprouts Treated with PBO ([1]; Time 120′): 1015.00
- Δ U (endopeptidase activity, untreated vs PBO treated) ([1]; Time 120′): 37.50 U
- IC50 ([2]; read-out: IC50 of PBO on ficin, evaluated from Dixon plot): 800 µM
- Ki ([2]; read-out: inhibition constant (KI) of PBO on the enzyme ficin, Dixon plot, substrate CBZ 1.5×10^−4 M and 6×10^−5 M): 450 µM
- initial velocity, Mean ([3]; substrate 24 μM): 0.0136 absorbance at 340 nm/min
- initial velocity, test 1 ([3]; substrate 24 μM): 0.0141 absorbance at 340 nm/min
- initial velocity, test 2 ([3]; substrate 24 μM): 0.0130 absorbance at 340 nm/min
- Mean (% contr.) ([3]; substrate 24 μM): 68%
- initial velocity, Mean ([3]; substrate 48 μM): 0.0270 absorbance at 340 nm/min
- initial velocity, test 1 ([3]; substrate 48 μM): 0.0243 absorbance at 340 nm/min
- initial velocity, test 2 ([3]; substrate 48 μM): 0.0297 absorbance at 340 nm/min
- Mean (% contr.) ([3]; substrate 48 μM): 68%
- initial velocity, Mean ([3]; substrate 96 μM): 0.0490 absorbance at 340 nm/min
- initial velocity, test 1 ([3]; substrate 96 μM): 0.0518 absorbance at 340 nm/min
- initial velocity, test 2 ([3]; substrate 96 μM): 0.0461 absorbance at 340 nm/min
- Mean (% contr.) ([3]; substrate 96 μM): 78%
- Initial velocity (% of control), Exp. 1 [3, 5]: 95%
- Initial velocity (% of control), Exp. 2 [3, 5]: 98%
- Initial velocity, Exp. 1 [3, 5]: 0.1306 absorbance at 340 nm/min
- Initial velocity, Exp. 2 [3, 5]: 0.1197 absorbance at 340 nm/min
- Initial velocity, Exp. 3 [3, 5]: 0.1029 absorbance at 340 nm/min
- Initial velocity (% of control), Exp. 1 [3, 6]: 91%
- Initial velocity, Exp. 1 [3, 6]: 0.1252 absorbance at 340 nm/min
- Initial velocity (% of control), Exp. 2 [3, 7]: 88%
- Initial velocity, Exp. 2 [3, 7]: 0.1079 absorbance at 340 nm/min
- Initial velocity (% of control), Exp. 1 [3, 8]: 86%
- Initial velocity (% of control), Exp. 2 [3, 8]: 86%
- Initial velocity, Exp. 1 [3, 8]: 0.1194 absorbance at 340 nm/min
- Initial velocity, Exp. 2 [3, 8]: 0.1057 absorbance at 340 nm/min
- Initial velocity (% of control), Exp. 2 [3, 9]: 84%
- Initial velocity, Exp. 2 [3, 9]: 0.1029 absorbance at 340 nm/min
- Initial velocity (% of control), Exp. 2 [3, 10]: 76%
- Initial velocity, Exp. 2 [3, 10]: 0.0927 absorbance at 340 nm/min
- PBO concentration with inhibitory activity on bromelain ([3]; substrate 240 μM, concentration dependent): higher than 0.5%

Source: patent US8017557B2, “Benzodioxole derivatives as modulators of proteolytic activity in plants” (Endura S.p.A., priority 2002, dated 2011)
